Measurements from patent US6933295B2, “Substituted isoindoles and the use thereof” (Bayer Aktiengesellschaft, priority 2001, dated 2005).

Compound	melting point [°C]
N#CCOc1ccc(CN2C(=O)c3cccc(NC(=O)c4ccc(Cl)s4)c3C2=O)cc1 [Example 6, 5-Chloro-N-{2-[4-(cyanomethoxy)benzyl]-1,3-dioxo-2,3-dihydro-1H-isoindol-4-yl}-2-thiophenecarboxamide]	199
CC(C#N)Oc1cccc(CN2C(=O)c3cccc(NC(=O)c4ccc(Cl)s4)c3C2=O)c1 (centres unmarked) [Example 7, 5-Chloro-N-{2-[3-(1-cyanoethoxy)benzyl]-1,3-dioxo-2,3-dihydro-1H-isoindol-4-yl}-2-thiophenecarboxamide]	88
